Assay results taken from patent US20230026808A1, “COMPOUNDS, COMPOSITIONS, AND METHODS FOR TREATING ISCHEMIA-REPERFUSION INJURY AND/OR LUNG INJURY” (YALE UNIVERSITY, priority 2019, published 2023).
Entries after “also recorded” stand apart in the source; their conditions may differ.

Key:
MAP3K3 = experiment: Western analysis of MAP3K3 protein content induced by fMLP in neutrophils; assay type: cell-based; settings: mouse neutrophils
Method: (§1) Mouse bone marrow neutrophils were isolated from long bones. After lysis of red blood cells (RBCs) with ACK buffer (155 mM NH4Cl, 10 mM KHCO3 and 127 μM EDTA), bone marrow cells were separated on a discontinuous Percoll gradient composed of 81%, 62%, and 45% Percoll. Neutrophils were collected at the interphase between 81% and 62% Percoll, washed in HBSS, and used for assays.

in vivo = settings: rat, iv; for AUC(0-inf) / Cmax: 10 mg/kg/day
[1] = 800 mg orally once daily in cancer patients; cited from earlier work
mouse neutrophils = experiment: ROS release assay in mouse neutrophils; assay type: cell-based; settings: fMLP (1 μM)
Method: as §1
(§2) For measurement of extracellular ROS release, isolated neutrophils were placed in the reaction buffer (0.25% BSA in HBSS with Ca^2+ and Mg^2+, 10 mM Isoluminol, 100 u/ml HRP) and stimulated with fMLP or PMA. For measurement of total ROS production, neutrophils were incubated with the reaction buffer (0.25% BSA in HBSS with Ca^2+ and Mg^2+, 10 mM Luminol, 100 u/ml HRP), followed with stimulations. Chemiluminescence was read continuously in a plate reader (Perkin Elmer). For reconstituted ROS production system in COS-7 cells, PMA (2 μM) was used for stimulation.

[2] = system: brain ischemia-reperfusion injury (IRI); experiment: Intraluminal middle cerebral artery (MCA) occlusion brain stroke mouse model; assay type: in vivo
human neutrophils = experiment: ROS production assay in human neutrophils; assay type: cell-based; settings: 100 nM fMLP
Method: as §2
Buffy coat of human blood samples were subjected to neutrophil enrichment using the EasySep Human Neutrophil Enrichment Kit (Stemceli Technologies) according to manufacturer's protocol. Briefly, the depletion antibody cocktail was mixed with the buffy coat followed by incubation with magnetic particles. The EasySep Magnet was then used to immobilize unwanted cells as the label-free neutrophils were poured into another conical tube. Enriched neutrophils were pelleted and resuspended in an assay buffer (Hanks buffer with Ca^2+ and Mg^2+, 0.25% BSA) for ROS production assay or Western analysis.

HCl-induced ALI = experiment: Acid aspiration (HCl)-induced acute lung injury mouse model; assay type: in vivo; settings: for BAL cytokine contents / myeloid cell (neutrophil) infiltration in BAL and lungs: injured lungs; for phosphorylated AKT levels in lung extracts: lungs subjected to ALI, AKT S473; for effect on survival: mice lacking p47^phox in hematopoietic cells
Method: Mice were anaesthetized by ketamine/Xylazine ([…] and 100 mg/kg) and were secured vertically from their incisors on a custom-made mount for orotracheal instillation. A 22G catheter (Jelco, Smiths Medical) was guided 1.5 cm below the vocal cords, and 2.5 μl/g of 0.05 M HCl was instilled. Four hours after the induction of injury, 100 μl of FITC-labeled albumin (10 mg/ml) was injected via retro-orbital vein. Mice were euthanized for sample collection 6 hours after the induction of injury. For the baseline permeability measurement, saline without HCl was administered the same way. The baseline permeability measurement was subtracted in the data presented.
In survival experiments, mice received 2.5 μl/g of 0.1 M HCl orotracheally and the observation period was extended up to 30 h.
Acute lung injury indices were quantified using HE-stained lung sections. The quantification of perivascular interstitial edema was done as the ratios of perivascular interstitial edema areas to vessel areas. More than 8 sections from the same lobes of the lungs were quantified for each mouse.
Fifteen min after HCl ALI-induction, BALs were collected from the lungs. Mouse lungs were then mechanically dissociated and filtered through a 40 μm mesh to generate a single-cell suspension, and red blood cells were lysed. BAL cells, which were pelleted and resuspended, and whole lung cells were labeled for 30 minutes at 37° C. with 1 μM CM-H2-DCFDA (C6827, Invitrogen). The cells were then labeled for the surface markers (CD45; BD Bioscience 564279; Ly-6G; BD Bioscience 560602). Flow cytometry was performed on a BD LSRII.

[3] = system: p47^phox phosphorylation at Ser-208; experiment: Western analysis of p47^phox Ser-208 phosphorylation in fMLP-stimulated neutrophils; assay type: cell-based; settings: fMLP (1 μM) stimulated mouse neutrophils
Method: as §1

[4] = drug given during ischemic phase
[5] = given i.v. 0.5 hrs after reperfusion
[6] = HCl model, therapeutic modality, intranasally post injury induction

Compound: Cc1ccc(Nc2nccc(N(C)c3ccc4c(C)n(C)nc4c3)n2)cc1S(N)(=O)=O [pazopanib, 5-((4-((2,3-dimethyl-2H-indazol-6-yl)(methyl)amino)pyrimidin-2-yl)amino)-2-methylbenzenesulfonamide]
- increase in MAP3K3 protein content induced by fMLP (MAP3K3): abrogated the increase in MAP3K3 protein content
- AUC(0-inf) (in vivo; female): 276 µg·h/mL
- Cmax (in vivo; female): 47 µg/mL
- AUC(0-inf) (in vivo; male): 278 µg·h/mL
- Cmax (in vivo; male): 55 µg/mL
- NOAEL at 2 weeks (in vivo): 10 mg/kg/day
- NOAEL at 14 days (in vivo): 10 mg/kg
- tolerability [1]: well-tolerated
- ROS production (mouse neutrophils; WT mouse neutrophils): increases in ROS production
- ROS production (mouse neutrophils; WT mouse neutrophils, listed as Pazopanib): increases ROS release
- ROS production (mouse neutrophils; p47^phox-KI neutrophils, 20 nM pazopanib): failed to elevate ROS production
- brain IRI ([2]; 60 μg retro-orbital intravenous injection 30 min after reperfusion): reduces brain IRI
- brain IRI ([2]; 60 μg retro-orbital intravenous injection immediately after reperfusion): fails to reduce brain IRI
- infarct size of the brain [2, 4]: no improvement
- neurological score [2, 4]: no improvement
- infarct size [2, 5]: less infarct size
- neurological deficit score [2, 5]: improved neurological deficit score
- ROS production (human neutrophils): increases ROS production
- mortality (HCl-induced ALI; HCl model, prophylactic, intranasally prior to injury): reduced
- mortality (HCl-induced ALI; [6]): significant reductions; also recorded: reduces mortality
- perivascular interstitial edema (HCl-induced ALI; [6]): significant reductions
- BAL cytokine contents (HCl-induced ALI): did not affect
- myeloid cell (neutrophil) infiltration in BAL and lungs (HCl-induced ALI): did not affect
- BAL cytokine contents (HCl-induced ALI; listed as Pazopanib): no significant effects
- myeloid cell (neutrophil) infiltration in BAL and lungs (HCl-induced ALI; listed as Pazopanib): no significant effects
- phosphorylated AKT levels in lung extracts (HCl-induced ALI): increases in phosphorylated AKT levels
- phosphorylated AKT levels in lung extracts (HCl-induced ALI; listed as Pazopanib): increases phosphorylation of AKT at S473
- effect on survival (HCl-induced ALI): abrogated the effects of pazopanib
- effect on survival (HCl-induced ALI; listed as Pazopanib): failed to increase survival
- ROS in neutrophils in BALs and lungs (HCl-induced ALI; pazopanib-treated mice subjected to HCl lung insult, DCFDA): elevated ROS
- p47^phox phosphorylation at Ser-208 in neutrophils [3]: inhibit p47^phox phosphorylation at Ser-208; also recorded: inhibits phosphorylation of Ser-208 of p47^phox
